Earlier results on five compounds are cited in EP4659594A1, “ORAL PRODUCTS CONTAINING MODIFIED NICOTINE-POLYMER COMPLEX” (Nicoventures Trading Limited, priority 2024, dated 2025).

The logP is the decadic logarithm of the partition coefficient of the neutral form, usually between octanol and water.

The conditions of the series: octanol/water; source of the values not stated.
As to `CCCCCCCS(=O)(=O)O` [1-heptanesulfonic acid], the log partition coefficient (logP) was 2.0. Consider `CCCCCCCCCCCC(=O)O` [dodecanoic acid], for which the log partition coefficient (logP) is recorded as 4.6. As for `CC(C)[C@@H]1CC[C@@H](C)C[C@H]1OC(=O)CCC(=O)O` [monomenthyl succinate], the lipophilicity (logP) is recorded as 3. Consider ethyl benzoic acid, for which the logP is recorded as 2.9. For isopropyl benzoic acid, the log partition coefficient (logP) is 3.5.
